Where “and” joins values, the source holds several entries; their conditions need not be identical. Identical values can stand only once. Entries after “also recorded” stand apart in the source; their conditions may differ.
Experiments:
Format in all cases: physicochemical
[1] = Absorbance spectra of the dyes in DCM (UV-Visible/NIR spectrophotometer); details: dichloromethane; for absorption (DCM) ε: at absorption λmax; for absorption (DCM) λmax: in example paragraphs the longest-wavelength absorbance peak
Description: (§1) The absorbance spectra in FIG. 2 and FIG. 5 were obtained in DCM on a JASCO V-770 UV-Visible/[…] spectrophotometer with a 2000 nm/min or 4000 nm/min scan rate. Plotted are the baseline corrected and normalized data. The emission spectra in FIG. 2 were taken in DCM on either a Horiba Instruments PTI QuantaMaster Series fluorometer (6), a Fluoromax-3 spectrofluorometer (1, 3-5), or home-built InGaAs array detector (Princeton Instruments). For 6 the following parameters were used: ex. 610 nm, emission collected from 620-900 nm, slits 5 nm, step size 1 nm, integration time 1 s. Plotted is the DCM corrected, baseline corrected, normalized data. For 1, and 3-5, the following parameters were used: slits 5 nm, step size 1 nm, integration time, 0.25 s. Excitation values and emission collection were as follows: 1 (ex. 460, collection 470-800 nm), 5 (ex. 675 nm, collection 685-950 nm), 4 (ex. 840 nm, emission 850-1100 nm), 3 (ex. 730 nm, emission 950-1400). Plotted are the baseline corrected, normalized data. The emission spectra in FIG. 5 were taken in dichloromethane on a Horiba Instruments QuantaMaster Series fluorometer with excitation slits: 15 nm, emission slits: 30 nm, step size: 1 nm, integration time: 0.1 s and excitation wavelengths as indicated.

[2] = Emission spectra of the dyes in DCM; details: dichloromethane; for Emission (CH2Cl2): Example 4 dyes, excitation 806-900 nm per dye; for emission (DCM) λmax: dyes 1, 3-6 and reference dyes
Description: as §1

[3] = Absolute fluorescence quantum yield using an integrating sphere; details: for ΦF (fluorescence quantum yield) / QE, εΦF (quantum efficiency): dichloromethane; for ΦF (fluorescence quantum yield): absolute value
Protocol: Polymethine dyes disclosed herein are characterized with respect to their photophysics including absorption, emission, extinction coefficient, quantum yields, and fluorescence lifetime. All quantum yields values obtained are absolute quantum yields values measured using an integrating sphere. Photostabilities are evaluated by sample irradiation with high powered LEDs. Additionally, solvatochromism, solvent compatibility, and stability are assessed.

[4] = Photobleaching under continuous-wave irradiation at 532 nm; details: for relative rate, krel (photobleaching): 532 nm irradiation; for relative rate, krel (photobleaching) / photostability (in words) / raw rate, k (photobleaching) / ε at 532 nm: dichloromethane; for raw rate, k (photobleaching): continuous-wave irradiation 532 nm, 0.53 fluence
Protocol: Photostabilities of the Flay series were measured under continuous-wave irradiation (532 nm, 0.53 fluence).

Row | Structure (SMILES) | absorption (DCM) ε [1] | absorption (DCM) λmax [1] [nm] | Emission (CH2Cl2) [2] [nm] | emission (DCM) λmax [2] [nm] | also measured
1 | ClC1=C(/C=C/c2cc(-c3ccccc3)[o+]c3c4c5c(cc23)CCCN5CCC4)CCC/C1=C\C=C1/C=C(c2ccccc2)Oc2c1cc1c3c2CCCN3CCC1.F[B-](F)(F)F [9-((E)-2-((E)-2-chloro-3-((E)-2-(11-phenyl-2,3,6,7-tetrahydro-1H,5H,9H-pyrano[2,3-f]pyrido[3,2,1-ij]quinolin-9-ylidene)ethylidene)cyclohex-1-en-1-yl)vinyl)-11-phenyl-2,3,6,7-tetrahydro-1H,5H-pyrano[2,3-f]pyrido[3,2,1-ij]quinolin-12-ium tetrafluoroborate] | 2.38±0.07×10^5 M^−1cm^−1 | 1061 | 1089 |  | 
2 | ClC1=C(/C=C/c2cc(-c3ccccc3)[s+]c(-c3ccccc3)c2)CCC/C1=C/C=C1C=C(c2ccccc2)SC(c2ccccc2)=C1.F[B-](F)(F)F [IR-1061, reference compound] |  |  |  | 1081 | ΦF (fluorescence quantum yield) [3]: 0.32±0.04%
3 | CN(C)c1ccc2c(c1)OC(c1ccccc1)=C/C2=C\c1cc(-c2ccccc2)[o+]c2cc(N(C)C)ccc12.O=C([O-])C(F)(F)F [Dye 6, (E)-7-(dimethylamino)-4-((7-(dimethylamino)-2-phenyl-4H-chromen-4-ylidene)methyl)-2-phenylchromenylium 2,2,2-trifluoroacetate] |  | 650 |  | 684 | QE, εΦF (quantum efficiency) [3]: 100 M⁻¹ cm⁻¹; ΦF (fluorescence quantum yield) ([3]; 2,2,2-trifluoroacetate): 0.7±0.5% and 0.7%; relative rate, krel (photobleaching) [4]: 4 ± 1; photostability (in words) ([4]; 532 nm laser, listed as Flav1, 2,2,2-trifluoroacetate): extremely high photostabilities; also recorded: excellent photostabilities; raw rate, k (photobleaching) [4]: 0.43 ± 0.01 s^−1 × 10^−3; ε at 532 nm [4]: 0.23 ± 0.08 M^−1cm^−1 × 10^4
4 | CN(C)c1ccc2c(c1)OC(c1ccccc1)=C/C2=C\C=C1/CCCC(/C=C/c2cc(-c3ccccc3)[o+]c3cc(N(C)C)ccc23)=C1Cl.F[B-](F)(F)F [4-((E)-2-((E)-2-chloro-3-(2-((E)-7-(dimethylamino)-2-phenyl-4H-chromen-4-ylidene)ethylidene)cyclohex-1-en-1-yl)vinyl)-7-(dimethylamino)-2-phenylchromenylium tetrafluoroborate] |  | 1026 | 1054 |  | 
5 | Cc1cc(-c2ccccc2)[o+]c2cc(N(C)C)ccc12 [Dye 1, 7-N,N-dimethylamino-4-methyl-flavylium perchlorate] | 17000 M⁻¹ cm⁻¹ | 510 |  | 587 | 
6 | ClC1=C(/C=C/c2cc(-c3ccccc3)[o+]c3ccc4ccccc4c23)CCC/C1=C\C=C1/C=C(c2ccccc2)Oc2ccc3ccccc3c21.F[B-](F)(F)F [1-((E)-2-((E)-2-chloro-3-((E)-2-(3-phenyl-1H-benzo[f]chromen-1-ylidene)ethylidene)cyclohex-1-en-1-yl)vinyl)-3-phenylbenzo[f]chromen-4-ium tetrafluoroborate] |  | 1014 | 1055 |  | 
7 | CCN(CC)c1ccc2c(c1)OC(c1ccccc1)=C/C2=C\C=C1/CCCC(/C=C/c2cc(-c3ccccc3)[o+]c3cc(N(CC)CC)ccc23)=C1Cl.F[B-](F)(F)F [4-((E)-2-((E)-2-chloro-3-(2-((E)-7-(diethylamino)-2-phenyl-4H-chromen-4-ylidene)ethylidene)cyclohex-1-en-1-yl)vinyl)-7-(diethylamino)-2-phenylchromenylium tetrafluoroborate] | 1.8±0.2×10^5 M^−1cm^−1 | 1034 | 1062 |  | 
8 | CN1C(=CC=CC=CC=CC2=[N+](C)c3ccccc3C2(C)C)C(C)(C)c2ccccc21.[I-] [HITCI, 1,1′,3,3,3′,3′-hexamethylindotricarbocyanine iodide, reference compound] |  |  |  |  | ΦF relative to Flav3 [3]: ~10 fold
9 | CN(C)c1ccc2c(c1)OC(c1ccccc1)=C\C2=C/C=C/C=C/c1cc(-c2ccccc2)[o+]c2cc(N(C)C)ccc12.[O-][Cl+3]([O-])([O-])[O-] [Dye 4] |  | 862 |  | 908 | QE, εΦF (quantum efficiency) [3]: 10000 M⁻¹ cm⁻¹; QE, εΦF (quantum efficiency) ([3]; listed as Flav5): 10^3 M^−1cm^−1; Stoke's shift [2]: 46 nm; relative rate, krel (photobleaching) [4]: 4.0 ± 0.2; photostability (in words) ([4]; 532 nm laser, listed as Flav5): extremely high photostabilities; also recorded: excellent photostabilities; raw rate, k (photobleaching) [4]: 2.6 ± 0.2 s^−1 × 10^−3; ε at 532 nm [4]: 1.29 ± 0.08 M^−1cm^−1 × 10^4
10 | ClC1=C(/C=C/c2cc(-c3ccccc3)[o+]c3cc(N4CCC4)ccc23)CCC/C1=C\C=C1/C=C(c2ccccc2)Oc2cc(N3CCC3)ccc21.F[B-](F)(F)F [7-(azetidin-1-yl)-4-((E)-2-((E)-3-(2-((E)-7-(azetidin-1-yl)-2-phenyl-4H-chromen-4-ylidene)ethylidene)-2-chlorocyclohex-1-en-1-yl)vinyl)-2-phenylchromenylium tetrafluoroborate] | 2.07±0.01×10^5 M^−1cm^−1 | 1029 | 1059 |  | 
11 | ClC1=C(/C=C/c2cc(-c3ccccc3)[o+]c3c2ccc2ccccc23)CCC/C1=C\C=C1/C=C(c2ccccc2)Oc2c1ccc1ccccc21.F[B-](F)(F)F [4-((E)-2-((E)-2-chloro-3-((E)-2-(2-phenyl-4H-benzochromen-4-ylidene)ethylidene)cyclohex-1-en-1-yl)vinyl)-2-phenylbenzo chromen-1-ium tetrafluoroborate] |  | 998 | 1024 |  | 
12 | CN(C)c1ccc2c(c1)OC(c1ccccc1)=C/C2=C\C=C\c1cc(-c2ccccc2)[o+]c2cc(N(C)C)ccc12.[O-][Cl+3]([O-])([O-])[O-] [Dye 5, 7-(dimethylamino)-4-((E)-3-((E)-7-(dimethylamino)-2-phenyl-4H-chromen-4-ylidene)prop-1-en-1-yl)-2-phenylchromenylium perchlorate] |  | 746 |  | 766 | absorption (DCM) ε ([1]; listed as Flav3): ~220,000 M^−1cm^−1; absorption (DCM) λmax ([1]; listed as Flav3): ~745 nm; QE, εΦF (quantum efficiency) [3]: 6600 M⁻¹ cm⁻¹; ΦF (fluorescence quantum yield) [3]: 2.9±0.5% and 2.9%; relative rate, krel (photobleaching) [4]: 1.00 ± .06; photostability relative to HITCI ([4]; 532 nm laser): 4 fold; photostability (in words) ([4]; 532 nm laser, listed as Flav3): extremely high photostabilities; also recorded: excellent photostabilities; raw rate, k (photobleaching) [4]: 1.00 ± 0.06 s^−1 × 10^−3; ε at 532 nm [4]: 2.0 ± 0.1 M^−1cm^−1 × 10^4
13 | ClC1=C(/C=C/c2cc(-c3ccccc3)[o+]c3cc(N(c4ccccc4)c4ccccc4)ccc23)CCC/C1=C\C=C1/C=C(c2ccccc2)Oc2cc(N(c3ccccc3)c3ccccc3)ccc21.F[B-](F)(F)F [4-((E)-2-((E)-2-chloro-3-(2-((E)-7-(diphenylamino)-2-phenyl-4H-chromen-4-ylidene)ethylidene)cyclohex-1-en-1-yl)vinyl)-7-(diphenylamino)-2-phenylchromenylium tetrafluoroborate] |  | 1047 | 1079 |  | 
14 | C1=C(c2ccccc2)Oc2c(cc3c4c2CCCN4CCC3)/C1=C/C=C/C=C/c1cc(-c2ccccc2)[o+]c2c3c4c(cc12)CCCN4CCC3.F[B-](F)(F)F [11-phenyl-9-((1E,3E,5E)-5-(11-phenyl-2,3,6,7-tetrahydro-1H,5H,9H-pyrano[2,3-f]pyrido[3,2,1-ij]quinolin-9-ylidene)penta-1,3-dien-1-yl)-2,3,6,7-tetrahydro-1H,5H-pyrano[2,3-f]pyrido[3,2,1-ij]quinolin-12-ium tetrafluoroborate] | 2.5±0.1×10^5 M^−1cm^−1 | 897 | 934 |  | 

— patent US11292778B2, “Heterocyclyl polymethine IR chromophores” (The Regents of the University of California, priority 2017, dated 2022)
